In brackets after ≈: the same amount, converted by molar mass.
Experiments:
Hepa1-6 cells = assay: Hepa1-6 mouse hepatocellular carcinoma subcutaneous xenograft model; format: in vivo, C57BL/6 mice
Procedure: (§1) Hepa1-6 cells were cultured and expanded in vitro. An appropriate amount of cells in the logarithmic growth phase was resuspended in a mixture of serum-free DMEM medium and Matrigel (1:1). under aseptic conditions to prepare a 2.5×10^6/100 µL cell suspension. A 100 µL aliquot of this suspension was injected subcutaneously into the left forearm axilla of male C57BL/6 mice. […] Daily oral administration was performed for 2 weeks. During the treatment period, mouse body weight and tumor diameter were measured daily. At the end of the experiment, mice were euthanized by cervical dislocation, and tumors were removed for weighing. Tumor volume (TV) was calculated using the formula: TV = 1/2 × a × b^2, where a represents the longest diameter of the tumor and b represents the shortest diameter.

CCR2 mRNA = CCR2 mRNA level in MDSCs (PCR); format: cell-based, mice; settings: CCR2 mRNA levels in MDSCs, 2 h
Procedure: Mice were euthanized by cervical dislocation and immersed in 75% ethanol solution for 5 min. Under sterile conditions, the tibia was removed, both ends of the bone were cut, and bone marrow was repeatedly flushed into a 15 mL centrifuge tube using a 1 mL syringe filled with culture medium. Centrifuge at 1600 rpm for 5 min to collect bone marrow cells. Wash twice with 1×PBS, then resuspend in RPMI 1640 complete medium containing GM-CSF (10 ng/mL) + IL-4 (10 ng/mL) and transfer to a cell culture dish to stimulate differentiation of bone marrow cells into MDSCs. Count cells and adjust density to 1 × 10^6 cells/mL in complete medium. Seed cells uniformly into 6-well plates at 2 mL per well. […] After incubation, collect cells into centrifuge tubes, centrifuge at 1600 rpm for 5 min, wash once with 1×PBS, and add 500 µL RNA extraction reagent to each tube. After centrifugation to obtain the pellet, add 20 µL DEPC-treated water to each tube to dissolve the pellet. Determine RNA concentration and reverse transcribe to cDNA. Add the cDNA, primers, and reverse transcriptase to a 96-well plate. Centrifuge at 4000 rpm for 5 min, then place in a PCR instrument for detection.

[1] = in vivo; cited from earlier work
[2] = gastric fluid, within 8 hours; cited from earlier work
[3] = target: farnesyltransferase (FTase) (Homo sapiens, UniProt P49354+P49356); settings: in vitro; cited from earlier work
MDSCs = assay: Inhibition of MDSC chemotaxis (Transwell, Hepa1-6 tumor-conditioned medium); format: cell-based, mice; settings: 12 h treatment, 24 h Transwell
Procedure: Hepa1-6 mouse hepatocellular carcinoma cells were uniformly seeded into 6-well plates. After cells reached confluence, supernatant was aspirated, and 1-1.5 mL fresh medium was added to each well. Following 24 h culture, supernatant was collected, centrifuged at 1600 rpm for 5 min, aspirated, and filtered through a 0.22 µm membrane to obtain tumor-conditioned medium for subsequent use. Euthanize mice by cervical dislocation and immerse in 75% ethanol solution for 5 min. Under sterile conditions, remove the tibia, cut both ends of the bone, and aspirate the bone marrow into a 1 mL syringe. Repeat flushing into a 15 mL centrifuge tube. Centrifuge at 1600 rpm for 5 min to collect bone marrow cells. Wash twice with 1×PBS. Resuspend cells in complete RPMI 1640 medium containing cytokines GM-CSF (10 ng/mL) and IL-4 (10 ng/mL) to stimulate differentiation into MDSCs. Count cells, adjust density to 1×10^6 cells/mL, and uniformly seed into 24-well plates at 300 µL per well. […] Centrifuge at 1600 rpm for 5 min, remove supernatant, resuspend cells in 300 µL fresh medium, and place into Transwell chambers. Add 600 µL normal medium (control group) or tumor-conditioned medium (model group) to the lower chamber. Co-culture for 24 h.

CT26 cells = format: in vivo, BALB/c mice
MDSCs; T cells = tested on: MDSCs; T cells; design: species or system BALB/c mice; settings: mouse, in vivo, po
Procedure: as §1, with “H22” for “Hepa1-6”, “An appropriate amount of cells in the logarithmic growth phase was resuspended in a mixture of serum-free DMEM medium and Matrigel (1:1). under aseptic conditions to prepare a 2.5×10^6/100 µL cell suspension.” left out, “forelimb” for “forearm”, “BALB/c” for “C57BL/6”
Once all tumors were dissected, nail-sized tumor pieces were transferred to 1.5 mL Eppendorf tubes and minced with scissors. […] After digestion, pass the mixture through a 200-mesh sieve to obtain the tumor cell suspension. […] Position the spleen on a 200-mesh cell strainer. Gently press the spleen using a 10 mL syringe needle. […] Transfer the washed splenocyte suspension into a 15 mL centrifuge tube. Centrifuge at 1600 rpm for 5 min to collect cells. Wash once with 1×PBS. Add 3 mL red blood cell lysis buffer (diluted with ddH2O) to each tube and incubate for 5 min. After lysis, add 10 mL 1×PBS to each tube to terminate lysis. Centrifuge at 1600 rpm for 5 min. Add 1 mL 1×PBS to each 15 mL centrifuge tube, transfer to 1.5 mL EP tubes, and centrifuge at 1600 rpm for 5 min. Add 1 mL 1×PBS to each tube containing stained tumor cells and lysed spleen cells for one wash, centrifuge at 1600 rpm for 5 min, and remove the supernatant.
Once all tumors were dissected, nail-sized tumor pieces were transferred to 1.5 mL Eppendorf tubes and minced with scissors. […] After digestion, pass the mixture through a 200-mesh sieve to obtain the tumor cell suspension. Centrifuge the resulting tumor suspension at 1600 rpm for 5 min, aspirate the supernatant, resuspend cells in 1 mL of 1×PBS per tube. […] Position the spleen on a 200-mesh cell strainer. Gently press the spleen using a 10 mL syringe needle. […] Transfer the splenocyte suspension into a 15 mL centrifuge tube. Centrifuge at 1600 rpm for 5 min to collect cells. Wash once with 1×PBS. Add 3 mL red blood cell lysis buffer (diluted with ddH2O) to each tube and incubate for 5 min. After lysis, add 10 mL 1×PBS to each tube to terminate lysis. Centrifuge at 1600 rpm for 5 min.

H22 cells = tested on: H22 cells; design: species or system BALB/c mice; settings: mouse, in vivo, po
Procedure: as §1, with “H22” for “Hepa1-6”, “An appropriate amount of cells in the logarithmic growth phase was resuspended in a mixture of serum-free DMEM medium and Matrigel (1:1). under aseptic conditions to prepare a 2.5×10^6/100 µL cell suspension.” left out, “forelimb” for “forearm”, “BALB/c” for “C57BL/6”

4T1 cells = format: in vivo, BALB/c mice
Procedure: 4T1 cells were cultured and expanded in vitro. […] A 100 µL aliquot of this suspension was injected subcutaneously into the left forelimb axilla of female BALB/c mice. […] Daily oral administration was performed for 3 weeks. During the treatment period, mouse body weight and tumor diameter were measured daily. At the end of the experiment, mice were euthanized by cervical dislocation, and tumors were removed for weighing. Tumor volume (TV) was calculated using the formula: TV = 1/2 × a × b^2, where a represents the longest diameter of the tumor and b represents the shortest diameter.

physchem = settings: deionized water, 37 °C, thermodynamic from solid
tumor cells = settings: in vitro cell models; cited from earlier work
Hepa1-6 = settings: 30 mg/kg intraperitoneal injection, 14 consecutive days; cited from earlier work
[4] = Hepa1-6, oral 40 µmol/kg/d, 2 weeks

Sequence of farnesyltransferase (FTase) (P49356 whole entry, one chain of several): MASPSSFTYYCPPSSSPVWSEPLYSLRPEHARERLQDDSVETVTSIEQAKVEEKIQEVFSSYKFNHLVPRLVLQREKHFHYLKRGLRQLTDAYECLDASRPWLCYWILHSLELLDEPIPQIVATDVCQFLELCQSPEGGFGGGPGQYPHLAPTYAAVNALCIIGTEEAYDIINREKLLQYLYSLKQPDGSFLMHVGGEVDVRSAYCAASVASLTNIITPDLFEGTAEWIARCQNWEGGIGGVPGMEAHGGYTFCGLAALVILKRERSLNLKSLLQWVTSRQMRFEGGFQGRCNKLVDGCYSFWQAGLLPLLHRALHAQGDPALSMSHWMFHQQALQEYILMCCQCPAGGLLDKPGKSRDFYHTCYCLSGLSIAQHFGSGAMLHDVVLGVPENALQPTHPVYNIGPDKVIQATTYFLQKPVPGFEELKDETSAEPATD

With `C=C1C(=O)O[C@@H]2[C@H]3C(C)=CC[C@@]34O[C@@]4(C)CC[C@@H]12` [Arg, Arglabin] as the compound, how does the “Tumor Inhibition Rate (%)” value (Hepa1-6 cells; mouse, in vivo, po) read?
The value was 95.86%.

And the “Tumor weight” value (Hepa1-6 cells; mouse, in vivo, po)?
The value was 0.04 ± 0.03 g.

And the “CCR2 mRNA suppression rate in MDSCs (%)” value (CCR2 mRNA; 1 µM)?
The value was 22.3%.

What about the “CCR2 mRNA suppression rate in MDSCs (%)” value (CCR2 mRNA; 10 µM) of the same compound?
Its value is 69.7%.

And the oral bioavailability [1]?
The oral bioavailability was 5%.

And the degradation rate [2]?
Its degradation rate is 50%.

What about the IC50 [3] of the same compound?
The IC50 was “micromolar level”.

And the “Suppression Rate (%)” value (MDSCs; 1 µM)?
Its value is 42.5%.

What about the “Suppression Rate (%)” value (MDSCs; 10 µM) of the same compound?
The value was 73.2%.

What about the antitumor effects (CT26 cells; CT26, oral 80 µmol/kg/day, 3 weeks) of the same compound?
The antitumor effects was “tumor-inhibiting effects”.

What about the “Tumor Inhibition Rate (%)” value (CT26 cells; mouse, in vivo, po) of the same compound?
The value was 34.94%.

And the “Tumor weight” value (CT26 cells; mouse, in vivo, po)?
Its value is 5.31 ± 0.51 g.

What about the “Spleen MDSCs (%)” value (MDSCs; T cells) of the same compound?
Its value is 27.89±4.72 %.

And the “Spleen T cells (%)” value (MDSCs; T cells)?
Its value is 27.02±4.07%.

And the “Tumor T cells(%)” value (MDSCs; T cells)?
The value was 17.72±6.12 %.

And the “Tumor-associated MDSCs (%)” value (MDSCs; T cells)?
Its value is 27.0±7.93 %.

And the “Tumor Suppression Rate (%)” value (H22 cells)?
The value was 39.43%.

What about the “Tumor weight” value (H22 cells) of the same compound?
Its value is 5.18 ± 0.61 g.

What about the antitumor effects (4T1 cells; 4T1, oral 40 µmol/kg/day, 3 weeks) of the same compound?
The antitumor effects was “no significant antitumor effects”.

And the “Tumor Inhibition Rate (%)” value (4T1 cells; mouse, in vivo, po)?
Its value is 12.87%.

What about the “Tumor weight” value (4T1 cells; mouse, in vivo, po) of the same compound?
The value was 1.58 ± 0.21 g.

For `C=C1C(=O)O[C@H]2[C@H]1CCC(C)=C1CC[C@@](C)(O)[C@@H]12` [MCL, Micheliolide], which solubility (physchem) is on record?
The solubility was 62 µg/mL (≈ 250 µM).

And the “Tumor Inhibition Rate (%)” value (Hepa1-6 cells; [4])?
The value was 70.52%.

What about the “Tumor weight” value (Hepa1-6 cells; [4]) of the same compound?
Its value is 0.27 ± 0.24 g.

And the IC50 (tumor cells)?
Its IC50 is “micromolar range”.

What about the “tumor weight inhibition rate” value (Hepa1-6) of the same compound?
The value was 50%.

Source: patent publication EP4813381A1, “PHARMACEUTICAL USE OF GUAIANE SESQUITERPENE DERIVATIVE” (Nanjing University Of Chinese Medicine, priority 2023, dated 2025)
